Like-named read-outs stand apart in the source and are kept apart here. Peptide text beside a SMILES is read from it. * marks the point of attachment. Cbz = O=C(OCc1ccccc1)*
Legend:
[1] = biological target: T1, β1c subunit of isolated human 20S proteasome (Homo sapiens, UniProt P28072); assay: Proteasome inhibition assay (20 S Proteasome Assay Kit, Z‐LLE‐AMC); type: biochemical; conditions: read-out: Inhibition cCP β1
T1 construct: purchased Enzo Life Sciences
Protocol: (§1) Proteasome inhibition assay. […] The 20 S Proteasome Assay Kit for Drug Discovery was used according to the supplier's protocol using Suc‐LLVY‐AMC (β5), Bz‐VGR‐AMC (β2) or Z‐LLE‐AMC (β1) as substrates (Enzo Life Sciences). Single point measurements of residual activity of proteasome activity were performed at a final concentration of 100 nM (n=3, β5c, β5i) or 1 μM (n=1, β1c, β2c, β5c, β5i, SI chapter 2a, Table S1). […] Inhibitors were prepared in 2‐fold concentration (cfinal=100 nM) and added to proteasomes (mfinal=200 ng/well). After 30 min incubation, substrate was added (cfinal=100 μM), incubated for 60 minutes and fluorescence was read using a Tecan M1000 microplate reader. […] IC50 values were determined from technical duplicates as mean value of three independent experiments.

[2] = biological target: T2, β2c subunit of isolated human 20S proteasome (Homo sapiens, UniProt Q99436); assay: Proteasome inhibition assay (20 S Proteasome Assay Kit, Bz‐VGR‐AMC); type: biochemical; conditions: c = 1 µM, n=1; read-out: Inhibition cCP β2
T2 construct: purchased Enzo Life Sciences
Protocol: Proteasome inhibition assay. Bortezomib (Selleckchem) and carfilzomib (MedChemExpress) were purchased and used without further purification. The 20 S Proteasome Assay Kit for Drug Discovery was used according to the supplier's protocol using Suc‐LLVY‐AMC (β5), Bz‐VGR‐AMC (β2) or Z‐LLE‐AMC (β1) as substrates (Enzo Life Sciences). Single point measurements of residual activity of proteasome activity were performed at a final concentration of 100 nM (n=3, β5c, β5i) or 1 μM (n=1, β1c, β2c, β5c, β5i, SI chapter 2a, Table S1). […] Inhibitors were prepared in 2‐fold concentration (cfinal=100 nM) and added to proteasomes (mfinal=200 ng/well). After 30 min incubation, substrate was added (cfinal=100 μM), incubated for 60 minutes and fluorescence was read using a Tecan M1000 microplate reader. Dose‐response curves were fitted to the equation Y=100/(1+10^((L°^gIC50−X)*HillSl°^pe)) using GraphPad Prism 7.02. IC50 values were determined from technical duplicates as mean value of three independent experiments.

[3] = biological target: T3, β5c subunit of isolated human 20S proteasome (Homo sapiens, UniProt P28074); assay: Proteasome inhibition assay (20 S Proteasome Assay Kit, Suc‐LLVY‐AMC); type: biochemical; conditions: for inhibition at 1 µM: read-out: Inhibition cCP β5; for inhibition at 0.1 µM: read-out: Rel. Inhibition β5c
T3 construct: purchased Enzo Life Sciences
Protocol: as §1

[4] = biological target: T4, β5i subunit of isolated human 20S proteasome (Homo sapiens, UniProt P28062); assay: as above; type: biochemical; conditions: for inhibition at 1 µM: c = 1 µM, n=1, read-out: Inhibition iCP β5; for inhibition at 0.1 µM: c=100 nM, read-out: Rel. Inhibition β5i
T4 construct: purchased Enzo Life Sciences
Protocol: as §1

MV4‐11 cells = assay: Cell viability endpoint assay (Celltiter Blue, 72 h); type: cell-based; conditions: for IC50: Homo sapiens, MV4-11, mean±SD from two independent experiments
Protocol: Cell lines. MV4‐11 (ACC 102), Jurkat (ACC 282) and THP‐1 (ACC 16) cells were obtained from DSMZ and maintained at 37 °C and 5 % CO2 at densities between 0.2–1×10^6 cells per mL in RMPI‐1640 medium supplemented with 10 % FBS, L‐glutamine (2 mM) and penicillin/streptomycin.
Cell viability endpoint assay. For the determination of cytotoxicity of proteasome inhibitors 50.000 cells per well were plated in 90 μl RPMI‐1640 medium supplemented with 0.1 % FBS and incubated overnight at 37 °C and 5 % CO2. Inhibitors were serially diluted in RPMI‐1640 medium as 10‐fold stocks and added to cells giving the final concentration (1 nM to 10 μM, Figure S2–S4) and incubated for 72 h at 37 °C and 5 % CO2. Cell viability was determined using the Celltiter Blue assay (Promega) by adding 20 μl of reagent, incubation for 120 minutes at 37 °C and 5 % CO2 and fluorescent read‐out using a Tecan M1000 microplate reader. Dose‐response curves were fitted to the equation “Y=Bottom+(Top‐Bottom)/(1+10^(X−L°^gIC50))” using GraphPad Prism 7.02. IC50 values are determined from technical triplicates as mean value of two independent experiments. Standard deviations (Table S1) as well as dose response curves (SI chapter 2b) are given in the supplementary information.

SMILES | inhibition at 1 µM ([1]; c = 1 µM, n=1) | inhibition at 1 µM [2] | inhibition at 1 µM ([3]; c = 1 µM, n=1) | inhibition at 0.1 µM ([3]; c=100 nM) | inhibition at 1 µM [4] | IC50 (MV4‐11 cells) | inhibition at 0.1 µM [4] | IC50 MV4‐11 (MV4‐11 cells; mean±SD from two independent experiments) | inhibition at 1 µM [1] | inhibition at 1 µM [3] | inhibition at 0.1 µM [3]
Cc1cc(C)c(Oc2ccccc2)cc1NC(=O)C(=O)[C@H](CC(C)C)NC(=O)[C@H](CC(=O)OC(C)(C)C)NC(=O)[C@H](CC(C)C)NC(=O)OCc1ccccc1 [Compound 21, tert ‐Butyl(S)‐3‐((S)‐2‐(((benzyloxy)carbonyl)amino)‐4‐methylpentanamido)‐4‐(((S)‐1‐((2,4‐dime‐thyl‐5‐phenoxyphenyl)amino)‐5‐methyl‐1,2‐dioxohexan‐3‐yl)amino)‐4‐oxobutanoate] | -4% | 11% | 52% | 33% | 17% | 297 ± 27 nM | – | – | – | – | –
Cc1cc(C)c(Oc2ccccc2)cc1NC(=O)C(=O)[C@H](CC(C)C)NC(=O)[C@H](CC(=O)OC(C)(C)C)NC(=O)[C@H](CC(C)C)NC(=O)c1cc(Cl)ccc1Cl [Compound 29, tert ‐Butyl (S)‐3‐((S)‐2‐(2,5‐dichlorobenzamido)‐4‐methylpentanamido)‐4‐(((S)‐1‐((2,4‐dimethyl‐5‐phenoxyphenyl)amino)‐5‐methyl‐1,2‐dioxohexan‐3‐yl)amino)‐4‐oxobuta‐noate] | -19% | -4% | 53% | 26% | -1% | 58 ± 10 nM | 8% | – | – | – | –
CC(C)C[C@H](NC(=O)OCc1ccccc1)C(=O)N[C@@H](CC(C)C)C(=O)N[C@@H](CC(C)C)C(=O)C(=O)Nc1ccc(Oc2ccccc2)cc1 [Compound 10, Benzyl‐((S)‐4‐methyl‐1‐(((S)‐4‐methyl‐1‐(((S)‐5‐methyl‐1,2‐dioxo‐1‐((4‐phenoxyphenyl)‐amino)hexan‐3‐yl)amino)‐1‐oxopentan‐2‐yl)amino)‐1‐oxopentan‐2‐yl)carbamate] | -3% | 2% | 63% | 25% | 23% | 45 ± 3 nM | 5% | – | – | – | –
Cc1c(NC(=O)C(=O)[C@H](CC(C)C)NC(=O)[C@H](CC(C)C)NC(=O)[C@H](CC(C)C)NC(=O)OCc2ccccc2)cccc1Oc1ccccc1 [Compound 14, Benzyl((S)‐4‐methyl‐1‐(((S)‐4‐methyl‐1‐(((S)‐5‐methyl‐1‐((2‐methyl‐3‐phenoxyphenyl)‐amino)‐1,2‐dioxohexan‐3‐yl)amino)‐1‐oxopentan‐2‐yl)amino)‐1‐oxopentan‐2‐yl)carbamate] | -10% | 5% | 78% | 41% | 30% | 27 ± 8 nM | 29% | – | – | – | –
Cc1ccc(NC(=O)C(=O)[C@H](CC(C)C)NC(=O)[C@H](CC(C)C)NC(=O)[C@H](CC(C)C)NC(=O)OCc2ccccc2)c(C)c1Oc1ccccc1 [Compound 12, Benzyl((S)‐1‐(((S)‐1‐(((S)‐1‐((2,4‐dimethyl‐3‐phenoxyphenyl)amino)‐5‐methyl‐1,2‐dioxo‐hexan‐3‐yl)amino)‐4‐methyl‐1‐oxopentan‐2‐yl)amino)‐4‐methyl‐1‐oxopentan‐2‐yl)carbama‐te] | -33% | 4% | 53% | 20% | 16% | 26 ± 8 nM | 9% | – | – | – | –
CC(C)C[C@@H](C=O)NC(=O)[C@H](CC(C)C)NC(=O)[C@H](CC(C)C)NC(=O)c1cnccn1 [Compound 23, N ‐((S)‐4‐Methyl‐1‐(((S)‐4‐methyl‐1‐(((S)‐4‐methyl‐1‐oxopentan‐2‐yl)amino)‐1‐oxopentan‐2‐yl)amino)‐1‐oxopentan‐2‐yl)pyrazine‐2‐carboxamide] | 19% | 49% | 75% | 30% | 64% | 145 ± 23 nM | 4% | – | – | – | –
CC(C)C[C@@H](C=O)NC(=O)[C@H](CC(=O)OC(C)(C)C)NC(=O)[C@H](CC(C)C)NC(=O)c1cc(Cl)ccc1Cl [Compound 25, tert ‐Butyl (S)‐3‐((S)‐2‐(2,5‐dichlorobenzamido)‐4‐methylpentanamido)‐4‐(((S)‐4‐methyl‐1‐oxopen‐tan‐2‐yl)amino)‐4‐oxobutanoate] | 9% | 10% | 90% | 64% | 75% | 28 ± 5 nM | 38% | – | – | – | –
Cc1cc(C)c(Oc2ccccc2)cc1NC(=O)C(=O)[C@H](CC(C)C)NC(=O)[C@H](CC(C)C)NC(=O)[C@H](CC(C)C)NC(=O)OCc1ccccc1 [Compound 11, Benzyl((S)‐1‐(((S)‐1‐(((S)‐1‐((2,4‐dimethyl‐5‐phenoxyphenyl)amino)‐5‐methyl‐1,2‐dioxo‐hexan‐3‐yl)amino)‐4‐methyl‐1‐oxopentan‐2‐yl)amino)‐4‐methyl‐1‐oxopentan‐2‐yl)carbama‐te] | -10% | 10% | 59% | 46% | 10% | 19 ± 1 nM | 12% | – | – | – | –
Cc1ccc(Oc2ccccc2)cc1NC(=O)C(=O)[C@H](CC(C)C)NC(=O)[C@H](CC(C)C)NC(=O)[C@H](CC(C)C)NC(=O)OCc1ccccc1 [Compound 15, Benzyl((S)‐4‐methyl‐1‐(((S)‐4‐methyl‐1‐(((S)‐5‐methyl‐1‐((2‐methyl‐5‐phenoxyphenyl)‐amino)‐1,2‐dioxohexan‐3‐yl)amino)‐1‐oxopentan‐2‐yl)amino)‐1‐oxopentan‐2‐yl)carbamate] | -2% | 9% | 75% | 26% | 48% | 16 ± 1 nM | 19% | – | – | – | –
CC(C)C[C@@H](C=O)NC(=O)[C@H](CC(C)C)NC(=O)[C@H](CC(C)C)NC(=O)Cn1cnc2ccccc2c1=O [Compound 22, (S)‐4‐Methyl‐N‐((S)‐4‐methyl‐1‐(((S)‐4‐methyl‐1‐oxopentan‐2‐yl)amino)‐1‐oxopentan‐2‐yl)‐2‐(2‐(4‐oxoquinazolin‐3(4H)‐yl)acetamido)pentanamide] | 28% | -10% | 43% | 6% | 28% | > 1000 nM | 11% | inactive | – | – | –
Cc1ccc(NC(=O)C(=O)[C@H](CC(C)C)NC(=O)[C@H](CC(C)C)NC(=O)[C@H](CC(C)C)NC(=O)OCc2ccccc2)cc1Oc1ccccc1 [Compound 13, Benzyl((S)‐4‐methyl‐1‐(((S)‐4‐methyl‐1‐(((S)‐5‐methyl‐1‐((4‐methyl‐3‐phenoxyphenyl)‐amino)‐1,2‐dioxohexan‐3‐yl)amino)‐1‐oxopentan‐2‐yl)amino)‐1‐oxopentan‐2‐yl)carbamate] | -4% | 4% | 69% | 49% | 15% | 23 ± 2 nM | 28% | – | – | – | –
CC(C)C[C@@H](C=O)NC(=O)[C@H](CC(C)C)NC(=O)[C@H](CC(C)C)NC(=O)OCc1ccccc1 [Compound 4, MG132, reference compound] (Cbz-Leu-Leu-Leu-aldehyde) | – | 21% | – | – | – | 131 ± 12 nM | – | – | 27% | 82% | 43%
